How the values were obtained:
[1] = target: ternary complex between BCL-XL and CRBN-DDB1 (Homo sapiens, UniProt Q07817+Q96SW2); test: Compound-induced formation of ternary complex between BCL-XL and CRBN-DDB1 by AlphaLISA; format: biochemical; design: key: the number of + indicates the intensity of AlphaLISA peak signal; ++: the number of + indicates the intensity of AlphaLISA peak signal; +++: the number of + indicates the intensity of AlphaLISA peak signal; ++++: the number of + indicates the intensity of AlphaLISA peak signal; +++++: the number of + indicates the intensity of AlphaLISA peak signal; settings: peak signal; 60 nM Strep-BCL-XL and 60 nM His-CRBN/DDB1
Sequence of ternary complex between BCL-XL and CRBN-DDB1 (Q07817 whole entry): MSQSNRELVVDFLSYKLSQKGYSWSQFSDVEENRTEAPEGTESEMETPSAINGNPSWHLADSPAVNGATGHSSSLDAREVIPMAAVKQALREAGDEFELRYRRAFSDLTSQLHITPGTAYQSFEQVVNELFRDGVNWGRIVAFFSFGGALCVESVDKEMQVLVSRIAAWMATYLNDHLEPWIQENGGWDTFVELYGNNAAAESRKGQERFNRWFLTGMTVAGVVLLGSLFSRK
Sequence of ternary complex between BCL-XL and CRBN-DDB1 (Q96SW2 whole entry): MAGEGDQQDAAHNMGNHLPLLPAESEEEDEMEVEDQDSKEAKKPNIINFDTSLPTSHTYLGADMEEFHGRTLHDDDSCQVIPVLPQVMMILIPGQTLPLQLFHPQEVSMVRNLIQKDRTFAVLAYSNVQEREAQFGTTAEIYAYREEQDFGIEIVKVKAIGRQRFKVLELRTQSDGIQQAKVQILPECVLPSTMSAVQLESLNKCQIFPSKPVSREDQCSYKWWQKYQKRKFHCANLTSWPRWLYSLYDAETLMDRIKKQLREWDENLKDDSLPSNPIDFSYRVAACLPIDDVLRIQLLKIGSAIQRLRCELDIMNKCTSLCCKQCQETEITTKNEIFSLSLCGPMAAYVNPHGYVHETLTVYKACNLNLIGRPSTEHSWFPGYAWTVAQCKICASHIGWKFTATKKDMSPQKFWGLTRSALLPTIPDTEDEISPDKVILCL
Sequence of ternary complex between BCL-XL and CRBN-DDB1 (Q16531 whole entry partner): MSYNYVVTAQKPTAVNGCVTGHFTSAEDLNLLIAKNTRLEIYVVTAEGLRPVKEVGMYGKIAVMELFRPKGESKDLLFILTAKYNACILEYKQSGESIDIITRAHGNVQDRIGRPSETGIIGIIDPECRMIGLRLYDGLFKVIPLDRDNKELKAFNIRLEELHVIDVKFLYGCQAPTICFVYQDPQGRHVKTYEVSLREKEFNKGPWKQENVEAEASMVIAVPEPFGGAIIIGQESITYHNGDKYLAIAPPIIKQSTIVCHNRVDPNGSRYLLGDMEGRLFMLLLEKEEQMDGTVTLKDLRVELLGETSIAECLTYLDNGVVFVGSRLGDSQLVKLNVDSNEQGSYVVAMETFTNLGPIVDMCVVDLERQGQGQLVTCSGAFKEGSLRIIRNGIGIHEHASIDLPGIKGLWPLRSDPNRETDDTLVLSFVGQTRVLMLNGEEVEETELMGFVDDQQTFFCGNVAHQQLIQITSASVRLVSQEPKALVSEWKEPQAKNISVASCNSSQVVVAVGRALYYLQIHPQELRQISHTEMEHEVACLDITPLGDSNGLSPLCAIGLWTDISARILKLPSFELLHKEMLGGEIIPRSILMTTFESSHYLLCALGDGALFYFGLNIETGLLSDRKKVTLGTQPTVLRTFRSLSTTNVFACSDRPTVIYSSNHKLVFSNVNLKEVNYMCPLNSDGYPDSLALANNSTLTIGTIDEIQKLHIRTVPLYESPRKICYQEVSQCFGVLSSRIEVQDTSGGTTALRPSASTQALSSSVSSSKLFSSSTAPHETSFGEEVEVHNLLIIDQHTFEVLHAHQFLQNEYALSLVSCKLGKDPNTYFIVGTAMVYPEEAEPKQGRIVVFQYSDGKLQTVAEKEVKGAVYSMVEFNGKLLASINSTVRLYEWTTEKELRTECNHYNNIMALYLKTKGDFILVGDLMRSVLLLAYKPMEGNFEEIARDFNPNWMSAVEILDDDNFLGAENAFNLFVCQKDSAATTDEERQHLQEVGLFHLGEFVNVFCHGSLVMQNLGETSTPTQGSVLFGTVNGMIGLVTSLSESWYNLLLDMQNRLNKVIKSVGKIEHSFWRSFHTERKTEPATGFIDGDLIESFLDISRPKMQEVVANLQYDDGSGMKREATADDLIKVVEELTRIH
Method: Experimental Example 4, Detection of Compound-Induced Formation of Ternary Complex Between BCL-XL and CRBN-DDB1 by AlphaLISA Method
Na2HPO4(Sigma), NaH2PO4(Sigma), sodium chloride (Sigma), Tween-20 (Sigma), AlphaLISA®Nikel Chelate Acceptor beads (PerkinElmer), Strep-Tactin® Alpha Donor beads (PerkinElmer), Assay plate (Corning), Strep-BCl-XL (HitGen), His-CRBN/DDB1 (HitGen).
DMSO was used to dissolve the dry powder of the test compound to obtain a 10.00 mM solution. The instrument ECHO was used to perform gradient dilution of the compound, which was then added to a 384-well reaction plate (Corning, Cat #3824), so that the final concentration of DMSO in the entire reaction system (10.0 μL) was less than 1%, and the same amount of DMSO was added and used as a control.
Strep-BCl-XL and His-CRBN/DDB1 proteins were dissolved in buffer (10 mM NaH2PO4, 40 mM Na2HPO4, 150 mM sodium chloride, 0.03% Tween20, pH=7.4) to obtain a protein mixture of 60 nM Strep-BCL-XL and 60 nM His-CRBN/DDB1, the protein mixture (5ul/well) was added to the 384-well plate in which the compound had been added, and incubated at room temperature for 30 minutes, then 5 μl of a detection mixture with 50 μg/ml AlphaLISA®Nikel Chelate Acceptor beads and 50 μg/ml Strep-Tactin® Alpha Donor beads was added, and incubated at room temperature for 2 hours; and then a microplate reader was used to detect AlphaLISA signal.
Fifth order polynomial or Sixth order polynomial in Polynomial of Graphpad 6.0 was used for data fitting.

MOLT-4 cells = test: Inhibitory activity on MOLT4 cell proliferation by Cell Titer-Glo method; format: cell-based; settings: Homo sapiens, 72 hours incubation, read-out: IC50 concentration for inhibiting MOLT-4 cells
Method: Experimental Example 5, Evaluation Experiment of Inhibitory Activity of Compound on MOLT4 Cell Proliferation by Cell Titer-Glo Method
RPMI medium modified (Hyclone), FBS (Corning), Dimethyl Sulfoxide, P/S, CellTiter-Gbo Luminescent Cell Viability Assay (Promega), MOLT-4 cell (ATCC).
MOLT-4 cells were cultured in monolayer in vitro in an incubator containing 5% CO2 air at 37° C. The culture medium was RPMI 1640 with 10% FBS and 1% P/S. 15 μL of MOLT4 cells, containing 5×10^4 cells per ml, was inoculated to a 384-well plate (Corning, 3707), 750 cells/well, and incubated at 37° C. and 5% CO2 for 30 minutes. Then the compound that had been diluted in advance was added, with a total of 9 concentration points, and 2 parallel repetitions for each concentration point. The cell growing group without adding the compound was used as a negative control (maximum signal control), and the culture medium group was used as a blank control (minimum signal control). At the same time, it was ensured that the final DMSO content in each reaction well was 0.1%. The compound and the cells were incubated in a cell culture incubator at 37° C., 5% CO2 for 3 days (72 hours).
The 384-well plate was taken out from the cell culture incubator and allowed to stand at room temperature, equilibrated for 20 to 30 minutes, and then 25 μl of Cell Titer-Glo detection reagent was added to each reaction well, lysed on a shaker for 2 minutes, incubated for 10 minutes, and BMG PHERAStar (Luminescence) was used for reading.
The inhibition rate was calculated based on the luminescence signals: the average value of the negative control (maximum signal control) and the blank control (minimum signal control) was first calculated, then the inhibition rates of the compound at different concentrations for the cells were calculated as follows:
The IC50 of the compound to inhibit cell activity was calculated by fitting with GraphPad Prism 6 using log(inhibitor) vs. response−Variable slope mode. The fitting equation was: Y=Bottom+(Top−Bottom)/(1+10^((LogIC50−X)*HillSlope)), wherein Y represented the inhibition rate and X represented the known compound concentration after Log.

Row | SMILES | AlphaLISA signal (PROTAC ternary complex signal intensity) [1] | IC50 (MOLT-4 cells) [µM]
1 | C=Cc1cc(-c2nc3c(c(NC)n2)CCN(C(=O)c2ccc(COc4ccc(C#CCN5CCN(CCCCOc6cccc7c6C(=O)N(C6CCC(=O)NC6=O)C7=O)CC5)cc4)cc2)C3)cnc1C=C (stereo not drawn) [Compound C3-15] | + | –
2 | C=Cc1cc(-c2nc3c(c(NC)n2)CCN(C(=O)c2ccc(COc4ccc(C#CCN5CCN(CCCCCCNc6cccc7c6C(=O)N(C6CCC(=O)NC6=O)C7=O)CC5)cc4)cc2)C3)cnc1C=C (stereo not drawn) [Compound C2-4] | ++++ | –
3 | C/C=c1/cc(-c2nc3c(c(NC)n2)CCN(C(=O)c2ccc(COc4ccc(C#CCN(C)CCCCCOc5cccc6c5C(=O)N(C5CCC(=O)NC5=O)C6=O)cc4)cc2)C3)cn/c1=C/C (stereo not drawn) [Compound B3] | + | –
4 | C=Cc1cc(-c2ncc3c(n2)CN(C(=O)c2ccc(COc4ccc(C#CCN5CCN(CCCCCOc6cccc7c6C(=O)N(C6CCC(=O)NC6=O)C7=O)CC5)cc4)cn2)CC3)cnc1C=C (stereo not drawn) [Compound C3-10] | ++ | –
5 | CNc1nc(-c2cnc3ccccc3c2)nc2c1CCN(C(=O)c1ccc(/C=C/c3ccc(C#CCN4CCN(C(=O)CCCC(=O)N[C@H](C(=O)N5C[C@H](O)C[C@H]5C(=O)NCc5ccc(-c6scnc6C)cc5)C(C)(C)C)CC4)cc3)cc1)C2 [Compound G2-3] | + | –
6 | C=Cc1cc(-c2nc3c(c(NC)n2)CCN(C(=O)c2ccc(COc4ccc(C#CCN5CCN(CCCOc6cccc7c6C(=O)N(C6CCC(=O)NC6=O)C7=O)CC5)cc4)cc2)C3)cnc1C=C (stereo not drawn) [Compound C3-14] | + | –
7 | C=Cc1cc(-c2nc3c(c(NC)n2)CCN(C(=O)c2ccc(COc4ccc(C#CCN5CCN(CCCCCCCCOc6cccc7c6C(=O)N(C6CCC(=O)NC6=O)C7=O)CC5)cc4)cc2)C3)cnc1C=C (stereo not drawn) [Compound C3-18] | +++ | –
8 | O=C1CCC(N2C(=O)c3ccc(N4CCN(CC5CCN(CC#Cc6ccc(OCC78CC(C(=O)N9CCc%10cnc(-c%11cnc%12ccccc%12c%11)nc%10C9)(C7)C8)cc6)CC5)CC4)cc3C2=O)C(=O)N1 (stereo not drawn) [Compound F1B-4] | – | 1 to 10
9 | CNc1nc(-c2cnc3ccccc3c2)nc2c1CCN(C(=O)c1ccc(/C=C/c3ccc(C#CCN4CCN(C(=O)CCCCCC(=O)N[C@H](C(=O)N5C[C@H](O)C[C@H]5C(=O)NCc5ccc(-c6scnc6C)cc5)C(C)(C)C)CC4)cc3)cc1)C2 [Compound G1-3] | – | > 200
10 | C=Cc1cc(-c2nc3c(c(NC)n2)CCN(C(=O)c2ccc(COc4ccc(C#CCN5CCN(CCCNc6cccc7c6C(=O)N(C6CCC(=O)NC6=O)C7=O)CC5)cc4)cc2)C3)cnc1C=C (stereo not drawn) [Compound C2-6] | – | 1 to 10
11 | C=Cc1cc(-c2ncc3c(n2)CN(C(=O)c2ccc(COc4ccc(C#CCN5CCN(CCCCCOc6cccc7c6C(=O)N(C6CCC(=O)NC6=O)C7=O)CC5)cc4)nc2)CC3)cnc1C=C (stereo not drawn) [Compound C3-12] | – | 50 to 100
12 | O=C1CCC(N2Cc3cc(C4CN(C5CCN(CC#Cc6ccc(OCC78CC(C(=O)N9CCc%10cnc(-c%11cnc%12ccccc%12c%11)nc%10C9)(C7)C8)cc6)CC5)C4)ccc3C2=O)C(=O)N1 (stereo not drawn) [Compound F1A-5] | – | 1 to 10
13 | C/C=c1/cc(-c2ncc3c(n2)CN(C(=O)c2ccc(/C=C/c4ccc(C#CCN5CCN(CCCCCCc6cccc7c6CN(C6CCC(=O)NC6=O)C7=O)CC5)cc4)cc2)CC3)cn/c1=C/C (stereo not drawn) [Compound C1-2] | – | > 200
14 | CNc1nc(-c2cnc3ccccc3c2)nc2c1CCN(C(=O)c1ccc(/C=C/c3ccc(C#CCN4CCN(CCCCC#Cc5cccc6c5CN(C5CCC(=O)NC5=O)C6=O)CC4)cc3)cc1)C2 (stereo not drawn) [Compound D2-7] | – | 100 to 200
15 | O=C1CCC(c2cccc(C#CCCN3CCN(CC#Cc4ccc(OCC56CC(C(=O)N7CCc8cnc(-c9cnc%10ccccc%10c9)nc8C7)(C5)C6)cc4)CC3)c2)C(=O)N1 (stereo not drawn) [Compound D2-16] | – | 1 to 10
16 | C=Cc1cc(-c2ncc3c(n2)CN(C(=O)c2ccc(/C=C/c4ccc(C#CCN5CCN(CCCCCOc6cccc7c6C(=O)N(C6CCC(=O)NC6=O)C7=O)CC5)nc4)cc2)CC3)cnc1C=C (stereo not drawn) [Compound C3-8] | – | > 200
17 | C=Cc1cc(-c2nc3c(c(NC)n2)CCN(C(=O)c2ccc(COc4ccc(C#CCN5CCN(CCCCCOc6cccc7c6C(=O)N(C6CCC(=O)NC6=O)C7=O)CC5)cc4)cn2)C3)cnc1C=C (stereo not drawn) [Compound C3-11] | – | 100 to 200

Further lines, results first:

Row | AlphaLISA signal (PROTAC ternary complex signal intensity) [1] | IC50 (MOLT-4 cells) [µM] | SMILES
18 | – | > 200 | O=C1CCC(N2C(=O)c3cccc(N4CC5(CC(N6CCN(CC#Cc7ccc(/C=C/c8ccc(C(=O)N9CCc%10cnc(-c%11cnc%12ccccc%12c%11)nc%10C9)cc8)cc7)CC6)C5)C4)c3C2=O)C(=O)N1 (stereo not drawn) [Compound F3A-1]
19 | – | 1 to 10 | O=C1CCC(N2Cc3cc(N4CCC(N5CCN(CC#Cc6ccc(/C=C/c7ccc(C(=O)N8CCc9cnc(-c%10cnc%11ccccc%11c%10)nc9C8)cc7)cc6)CC5)CC4)ccc3C2=O)C(=O)N1 (stereo not drawn) [Compound F2-3]
20 | – | 100 to 200 | O=C1CCC(N2Cc3c(CCCN4CCC(N5CCN(CC#Cc6ccc(/C=C/c7ccc(C(=O)N8CCc9cnc(-c%10cnc%11ccccc%11c%10)nc9C8)cc7)cc6)CC5)CC4)cccc3C2=O)C(=O)N1 (stereo not drawn) [Compound F2-6]
21 | – | 100 to 200 | O=C1CCC(N2Cc3c(cccc3N3CC4(CC(CN5CCN(CC#Cc6ccc(/C=C/c7ccc(C(=O)N8CCc9cnc(-c%10cnc%11ccccc%11c%10)nc9C8)cc7)cc6)CC5)C4)C3)C2=O)C(=O)N1 (stereo not drawn) [Compound F3A-4]
22 | – | > 200 | O=C1CCC(N2Cc3cc(C#CCCCN4CCN(CC#Cc5ccc(/C=C/c6ccc(C(=O)N7CCc8cnc(-c9cnc%10ccccc%10c9)nc8C7)cc6)cc5)CC4)ccc3C2=O)C(=O)N1 (stereo not drawn) [Compound D2-3]
23 | – | 1 to 10 | CNc1nc(-c2cnc3ccccc3c2)nc2c1CCN(C(=O)c1ccc(/C=C/c3ccc(C#CCN4CCN(CCCCCc5cccc6c5CN(C5CCC(=O)NC5=O)C6=O)CC4)cc3)cc1)C2 (stereo not drawn) [Compound C1-4]
24 | – | 1 to 10 | CNc1nc(-c2cnc3ccccc3c2)nc2c1CCN(C(=O)c1ccc(/C=C/c3ccc(C#CCN4CCN(C5CCN(c6ccc7c(c6)CN(C6CCC(=O)NC6=O)C7=O)CC5)CC4)cc3)cc1)C2 (stereo not drawn) [Compound F2-7]
25 | – | 1 to 10 | C=Cc1cc(-c2ncc3c(n2)CN(C(=O)c2ccc(/C=C/c4ccc(C#CCN5CCN(CCCCc6ccc7c(c6)CN(C6CCC(=O)NC6=O)C7=O)CC5)cc4)cc2)CC3)cnc1C=C (stereo not drawn) [Compound C1-3]
26 | – | 50 to 100 | O=C1CCC(N2Cc3cc(CN4CC(N5CCN(CC#Cc6ccc(/C=C/c7ccc(C(=O)N8CCc9cnc(-c%10cnc%11ccccc%11c%10)nc9C8)cc7)cc6)CC5)C4)ccc3C2=O)C(=O)N1 (stereo not drawn) [Compound F2-2]
27 | – | > 200 | O=C1CCC(N2Cc3c(CCCN4CC(N5CCN(CC#Cc6ccc(/C=C/c7ccc(C(=O)N8CCc9cnc(-c%10cnc%11ccccc%11c%10)nc9C8)cc7)cc6)CC5)C4)cccc3C2=O)C(=O)N1 (stereo not drawn) [Compound F2-5]
28 | – | 1 to 10 | O=C1CCC(N2Cc3cc(N4CCC(N5CCN(CC#Cc6ccc(OCC78CC(C(=O)N9CCc%10cnc(-c%11cnc%12ccccc%12c%11)nc%10C9)(C7)C8)cc6)CC5)CC4)ccc3C2=O)C(=O)N1 (stereo not drawn) [Compound F2-10]
29 | – | 100 to 200 | O=C1CCC(N2Cc3c(C#CCCCCN4CCN(CC#Cc5ccc(/C=C/c6ccc(C(=O)N7CCc8cnc(-c9cnc%10ccccc%10c9)nc8C7)cc6)cc5)CC4)cccc3C2=O)C(=O)N1 (stereo not drawn) [Compound D2-5]
30 | – | 100 to 200 | O=C1CCC(N2Cc3c(CN4CC5(CC(N6CCN(CC#Cc7ccc(/C=C/c8ccc(C(=O)N9CCc%10cnc(-c%11cnc%12ccccc%12c%11)nc%10C9)cc8)cc7)CC6)C5)C4)cccc3C2=O)C(=O)N1 (stereo not drawn) [Compound F3A-2]

Source: patent US20250136593A1, “DEGRADATION AGENT AND USE THEREOF” (HITGEN INC., priority 2021, published 2025)
